From ChEMBL document CHEMBL1201862, “PubChem BioAssay data set” (2004)
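Cells were grown in 96-well plates and exposed to each compound for 48 hours at five concentrations; endpoints were interpolated linearly between bracketing concentrations, or set to the highest concentration if not reached. The concentration for 50% growth inhibition is given as GI50.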 Calls of active or inactive are those of the source. No stated cut-off is given here; in the data, active = GI50 up to about 1.1 µM and inactive = higher.

Legend:
Test in all cases: NCI-60 cell line screen, 48 h
[1] = tested on: TK-10
[2] = tested on: SF-295
[3] = tested on: SF-268
[4] = tested on: SK-OV-3
[5] = tested on: IGROV-1
[6] = tested on: ACHN
[7] = tested on: NCI-H460
[8] = tested on: HCC 2998
[9] = tested on: HT-29
[10] = tested on: K562
[11] = tested on: HCT-15
[12] = tested on: U-251
[13] = tested on: NCI-H226
[14] = tested on: DMS-273
[15] = tested on: DLD-1
[16] = tested on: SK-MEL-5
[17] = tested on: OVCAR-3
[18] = tested on: UACC-62
[19] = tested on: SN12C
[20] = tested on: XF498
[21] = tested on: EKVX
[22] = tested on: RPMI-8226
[23] = tested on: 786-0
[24] = tested on: CCRF-CEM
[25] = tested on: SK-MEL-28
[26] = tested on: NCI-H23
[27] = tested on: HOP-92
[28] = tested on: SR
[29] = tested on: HCT-116
[30] = tested on: SW-620
[31] = tested on: SK-MEL-2
[32] = tested on: OVCAR-5
[33] = tested on: COLO 205
[34] = tested on: HL-60
[35] = tested on: OVCAR-8
[36] = tested on: KM12
[37] = tested on: M19-MEL
[38] = tested on: Malme-3M
[39] = tested on: MOLT-4
[40] = tested on: CAKI-1
[41] = tested on: KM-20L2
[42] = tested on: LOX IMVI
[43] = tested on: NCI-H522
[44] = tested on: DMS-114
[45] = tested on: SF-539
[46] = tested on: HOP-62
[47] = tested on: A549
[48] = tested on: RXF 393
[49] = tested on: LXFL 529
[50] = tested on: SNB-19
[51] = tested on: UACC-257
[52] = tested on: M14
[53] = tested on: UO-31
[54] = tested on: OVCAR-4
[55] = tested on: A498
[56] = tested on: SNB-78
[57] = tested on: SNB-75
[58] = tested on: HOP-18

Measured: GI50

CCC12CCCNC1c1c(n(C)c3ccccc13)C(C(=O)OC)C2 (stereo not given)
81.1 µM: [11]
inactive: [1] 116 µM | [2] 50.4 µM | [3] 85.5 µM | [4] 46.9 µM | [5] 61.4 µM | [6] 79.4 µM | [7] 76.9 µM | [8] 67.8 µM | [9] 38.1 µM | [10] 67.9 µM | [12] 61.7 µM | [13] 126 µM | [14] 68.7 µM | [15] 76.4 µM | [16] 36.6 µM | [17] 11.2 µM | [18] 56.8 µM | [19] 78.3 µM | [20] 51.6 µM | [21] 79.3 µM | [22] 9.4 µM | [23] 93.8 µM | [24] 85.1 µM | [25] 100 µM | [26] 51.6 µM | [27] 16.3 µM | [28] 49.8 µM | [29] 37.6 µM | [30] 68.1 µM | [31] 62.2 µM | [32] 67 µM | [33] 38.8 µM | [34] 72.9 µM | [35] 88.3 µM | [36] 58.3 µM | [37] 68.4 µM | [38] 80.2 µM | [39] 68.7 µM | [40] 32.8 µM | [41] 44.3 µM | [42] 93.1 µM | [43] 8.02 µM | [44] 18.5 µM | [45] 108 µM | [46] 93.3 µM | [47] 93.3 µM | [48] 36.5 µM | [49] 80.2 µM | [50] 95.5 µM | [51] 59.2 µM

CC(=O)O[C@H]1CC[C@@]2(C)C(=CC[C@@H]3C2CC[C@]2(C)Nc4c(cnn4-c4ccccc4)CC32)C1 (stereo not given in full)
10.4 µM: [11]
inactive: [1] 56.5 µM | [2] 2.69 µM | [4] 27.8 µM | [5] 20.6 µM | [52] 46.1 µM | [6] 13.8 µM | [7] 4.97 µM | [8] 16 µM | [9] 4.82 µM | [53] 27.1 µM | [12] 4.98 µM | [13] > 100 µM | [14] 4.24 µM | [54] 14.9 µM | [15] 21.4 µM | [16] 28.1 µM | [17] 48.2 µM | [18] 18.7 µM | [20] 25.7 µM | [55] 10.6 µM | [21] 44.6 µM | [22] 2.09 µM | [23] 4.73 µM | [24] 5.51 µM | [25] 10.4 µM | [26] 28.2 µM | [29] 24.4 µM | [30] 19.4 µM | [31] 54.6 µM | [32] 19.2 µM | [34] 2.77 µM | [35] 29.4 µM | [36] 11.9 µM | [37] 34.2 µM | [38] 29.9 µM | [39] 2.07 µM | [56] 14.4 µM | [40] 15.3 µM | [41] 3.78 µM | [44] 37.1 µM | [45] 2.51 µM | [46] 12.4 µM | [47] 23.7 µM | [48] 3.53 µM | [49] 17.9 µM | [51] 12.4 µM | [57] 4.07 µM

CCCCCCCCOCC(O)COC(C)C (stereo not given)
inactive: [1] > 100 µM | [2] 58.7 µM | [3] 39.1 µM | [4] > 100 µM | [5] > 100 µM | [52] 56.4 µM | [6] 97.9 µM | [7] 42.6 µM | [58] > 100 µM | [8] 26.6 µM | [9] 50.7 µM | [53] 41.3 µM | [10] 28.1 µM | [12] 89.3 µM | [13] 70 µM | [14] 16.7 µM | [54] 41.4 µM | [15] 89.7 µM | [16] 26.2 µM | [17] 16.2 µM | [18] 91.4 µM | [19] 24.2 µM | [55] 68.9 µM | [22] 22.8 µM | [23] 45.7 µM | [24] 20.9 µM | [25] > 100 µM | [26] 25.7 µM | [27] 13.7 µM | [28] 17 µM | [29] 53.1 µM | [30] 59.8 µM | [32] > 100 µM | [33] 40 µM | [34] 14.9 µM | [35] 70 µM | [37] 45.5 µM | [38] 61.7 µM | [39] 17 µM | [40] 43.1 µM | [41] 85.1 µM | [42] 25.8 µM | [46] 91.8 µM | [47] 41.6 µM | [49] 93.8 µM | [50] 74.6 µM | [51] 27.9 µM
27.4 µM: [11]

O=C(Cc1ccc([N+](=O)[O-])c([N+](=O)[O-])c1CC(=O)C(=O)Nc1cc(Cl)ccc1Cl)C(=O)Nc1cc(Cl)ccc1Cl
inactive: [1] > 100 µM | [2] > 100 µM | [3] > 100 µM | [4] > 100 µM | [5] > 100 µM | [52] > 100 µM | [6] > 100 µM | [7] 72.6 µM | [58] > 100 µM | [8] > 100 µM | [9] > 100 µM | [53] > 100 µM | [10] 33.5 µM | [12] 24.2 µM | [13] 82.2 µM | [14] 30.3 µM | [54] > 100 µM | [15] > 100 µM | [16] > 100 µM | [17] > 100 µM | [18] > 100 µM | [19] 59.8 µM | [55] > 100 µM | [21] > 100 µM | [22] 28 µM | [23] > 100 µM | [24] 17.9 µM | [25] > 100 µM | [26] > 100 µM | [27] > 100 µM | [28] > 100 µM | [29] > 100 µM | [30] 37.9 µM | [31] > 100 µM | [32] > 100 µM | [33] 22.9 µM | [34] > 100 µM | [35] > 100 µM | [36] > 100 µM | [37] > 100 µM | [38] > 100 µM | [39] 30 µM | [56] 80 µM | [40] > 100 µM | [41] > 100 µM | [42] 26.2 µM | [44] 45.5 µM | [45] > 100 µM | [46] > 100 µM | [47] > 100 µM | [48] 30.8 µM | [49] > 100 µM | [50] > 100 µM | [51] > 100 µM | [57] > 100 µM
21.7 µM: [11]

O=C(/C=C\c1cccc2ccccc12)c1cccs1
3.18 µM: [11]
inactive: [1] 19 µM | [2] 15.6 µM | [3] 11 µM | [4] 15.5 µM | [5] 10.3 µM | [52] 15.1 µM | [6] 11.5 µM | [7] 14 µM | [58] 10.2 µM | [8] 15.5 µM | [9] 5.21 µM | [53] 12.9 µM | [10] 2.56 µM | [12] 4.43 µM | [14] 5.26 µM | [54] 17.7 µM | [15] 3.77 µM | [16] 13.3 µM | [17] 11.4 µM | [18] 9.95 µM | [19] 16.8 µM | [55] 15.6 µM | [21] 12.8 µM | [22] 2.47 µM | [23] 10.7 µM | [24] 2.74 µM | [25] 14.3 µM | [26] 16.7 µM | [27] 11.9 µM | [29] 3.03 µM | [30] 1.62 µM | [32] 18.7 µM | [33] 15.7 µM | [34] 3.25 µM | [35] 7.08 µM | [36] 4.88 µM | [37] 8.3 µM | [38] 12.5 µM | [39] 5.06 µM | [56] 15.1 µM | [40] 6.31 µM | [41] 10.7 µM | [43] 2.52 µM | [44] 4.3 µM | [45] 16.9 µM | [46] 17.7 µM | [47] 16.8 µM | [49] 10.9 µM | [50] 12.6 µM | [51] 13.2 µM | [57] 23.6 µM
